1 substance from US12440431B2, “Cosmetic comprising ultraviolet wavelength conversion substance” (Shiseido Company, Ltd., priority 2019, dated 2025) can be followed below.

The test system of experiment [1] is Human dermal fibroblasts. Put plainly: Cell activity (AlamarBlue) of cells irradiated with UV through a UV wavelength conversion substance solution. As to conditions: UV dose 0-100 mJ/cm^2, FIG. 3. The class given is cell-based. On the procedure:
The UV wavelength conversion substances (1) and (2) were dissolved in water to prepare solutions having a concentration of 1% or 5%.
The UV wavelength conversion substances (3) and (4) were dispersed in alcohol to prepare 5% and 10% dispersions.
(§1) 1. Human dermal fibroblasts and human skin keratinocytes purchased from Kurabo Industries Ltd. were used. A cell suspension (1 mL) stored in liquid nitrogen was thawed in a water bath (37° C.) to an extent that small ice pellets remained, and then diluted with 9 mL of warm medium. 2. The diluted suspension was mixed gently and then transferred to a T75 flask and incubated overnight at 37° C. 3. The next day, the medium was replaced with 10 mL of fresh medium. 4. The medium was replaced periodically (once every 2 days for fibroblasts and once every 2 to 3 days for keratinocytes) and cell proliferation was continued. Meanwhile, the cells were observed using a microscope, and it was confirmed that the cells grew in the correct form. 5. After the cells reached about 80% confluence, the cells were passaged. The cells were passaged by washing the cells once with 10 mL of warm PBS, adding 5 mL of warm trypsin to a T75 flask, covering the bottom of the flask with a trypsin solution, followed by aspirating at room temperature for 1 minute. 6. […]
On the technique in general: The colour change of resazurin is a common sign of viable cells or microbes.

In experiment [2] the test system is Human dermal fibroblasts. Put plainly: Restoration of cell activity decreased by prior UV irradiation (AlamarBlue). As to conditions: pre-irradiation 400 mJ/cm^2 without substance, then UV 0-200 mJ/cm^2 through 0.4% or 2% C-phycocyanin (equivalent effect), FIG. 5. It counts as cell-based. The procedure:
as §1, with “6. The flask was allowed to stand in an oven at 37° C. for (maximum) 2 minutes for fibroblasts and (maximum) 7 minutes for keratinocytes. The cells were observed using a microscope and confirmed to be small and oval. 7. Thereafter, the side of the T75 flask was lightly tapped to release the cells.” for “6.”

In the case of C-phycocyanin, the “cell activity (relative fluorescence intensity)” value is recorded as “the decrease in cell activity was suppressed” in the experiment with Human dermal fibroblasts [1] (0.4% C-phycocyanin solution) and “the cell activity was even increased compared to the case where UV irradiation was not carried out” in the experiment with Human dermal fibroblasts [1] (2% C-phycocyanin solution). Besides, the “cell activity (relative fluorescence intensity) after prior decrease by UV” value in the experiment with Human dermal fibroblasts [2] was “cell activity was recovered”.
